Source: patent US20230270713A1, “Administration of Resiniferatoxin For Treatment of Bladder Pain or Bladder Cancer” (Sorrento Therapeutics, Inc., priority 2020, published 2023)

Experiments:
[1] = test system: cats with FIC (Feline Idiopathic Cystitis); experiment: VSOM in cats with Feline Idiopathic Cystitis; assay type: in vivo, cat
Procedure: The effectiveness and safety of a single intravesical instillation with RTX was evaluated for the management of clinical and behavioral signs associated with non-obstructive FIC in cats. The primary effectiveness endpoint was the improvement in a Veterinary-specific Outcome Measure (VSOM) and Cystitis Events Survey on day 28.
The total VSOM is the sum of three individual VSOM scores that each have an integer value in the range of 1 to 5. Each individual VSOM score corresponds to a clinical sign/activity/behavior selected as relevant to FIC for an individual cat by the cat's owner or legal representative with the help of the Investigator. An example of a clinical sign/activity/behavior is pain or resentfulness on palpation. The minimum possible score for each individual VSOM score is 1, which indicates no problem, and the maximum is 5, which indicates an impossible activity/behavior or a maximum severity clinical sign. The minimum and maximum total VSOM scores are 3 and 15. On screening days (e.g., Day 0 and Day 28), the Investigator completed the VSOM questionnaire and assigned a score to each of the 3 clinical signs/activities/behaviours that were selected.
Treatment success was defined as “a reduction of at least 2 in total VSOM score at Day 3 and 28 compared to VSOM score at day 0.” A decrease of less than 2, no change, or an increase in total score was defined as treatment failure. Cats presenting an increase in any individual VSOM score were considered a treatment failure regardless of total VSOM score.
(§1) RTX was provided as a 25 μg/mL (2.4 mL) solution, formulated with polysorbate, glucose, and phosphate buffer, and diluted in saline to 1 μg/mL before instillation. Intravesical instillation: After the cat has reached an adequate anesthesia level, the perineal area was prepared using a standard aseptic technique. After preparation, a urinary catheter (type and size decided on a case by case basis) was placed using aseptic technique. Then, the urinary bladder was emptied and flushed with 20 ml of sterile saline. Once the flush solution was removed, the RTX solution was infused through the urinary catheter over 2 minutes. Once the total volume of the solution is infused, the solution was left in the urinary bladder for 20 min. At the end of this period the IVP (investigational veterinary product) solution was removed. Finally, the urinary catheter was removed, and the perineal area was flushed with 20 ml of saline. The total amount of solution removed from the bladder was recorded.
(§2) 24 cats were treated and the cohorts and their respective IVP treatments are described in the table 9 below. The cohorts were populated and dosed sequentially. Cats enrolled in Cohorts 2, 3 and 4 were dosed at least 3 days after the previous cohort closed.

[2] = test system: CGRP and SP nerve fibers innervating dog bladder; experiment: Density of CGRP and SP axons in canine bladder (IHC, confocal); assay type: in vivo; settings: dogs
Procedure: Canine bladders from a healthy dog (control) and from dogs with intravesical application of resiniferatoxin (RTX) at 2 different doses (25 mcg and 250 mcg) were prepared for immunohistochemistry and confocal laser microscopy to quantify the axons expressing substance P (SP) and calcitonin-gene related peptide (CGRP). Confocal images were obtained at 40× magnification using a Carl Zeiss scanning confocal laser microscope (model LSM 800, Jena, Germany) with Z-stack function.

[3] = test system: cats with FIC (Feline Idiopathic Cystitis); experiment: Cystitis Events Survey in cats with Feline Idiopathic Cystitis; assay type: in vivo, cat; settings: for Cystitis Improvement ≥2 Point, cats n/N / Cystitis Improvement ≥3 Point, cats n/N / Cystitis Improvement ≥2 Point, percent of cats / Cystitis Improvement ≥3 Point, percent of cats: Day 28
Description: The Cystitis Events Survey consists a 5-point scale, ranging from 0=normal cat to 5=very severe sign of cystitis. Clinical signs of cystitis included in this survey are: increased frequency of urination; straining while urinating; crying out/vocalizing while urinating; presence of blood in urine; urination outside of litter box; and increased grooming around perineum.
The use of the Cystitis Events Survey was exploratory, and no strict definition of success was applied to the results. However, and based on published literature, the results were described as follows: (1) percentage of cats per cohort with an average improvement of 2 or more points and no increase in any individual score on Day 28; and (2) percentage of cats per cohort with an average improvement of 3 or more points and no increase in any individual score on Day 28.
as §1, with “RTX was provided as a 25 μg/mL (2.4 mL) solution, formulated with polysorbate, glucose, and phosphate buffer, and diluted in saline to 1 μg/mL before instillation.” left out
as §2

[4] = Overall (Cohorts 1-4), Day 28 vs Day 0
[5] = 6.25 μg (0.25 μg/mL), Day 0, n 6
[6] = 6.25 μg (0.25 μg/mL), Day 28, n 6
[7] = 12.5 μg (0.5 μg/mL), Day 0, n 6
[8] = 12.5 μg (0.5 μg/mL), Day 28, n 5
[9] = 12.5 μg (1.25 μg/mL), Day 0, n 6
[10] = 12.5 μg (1.25 μg/mL), Day 28, n 6

Compound: C=C(C)[C@]12C[C@@H](C)[C@@]34O[C@](Cc5ccccc5)(O[C@@H]1[C@@H]3C=C(COC(=O)Cc1ccc(O)c(OC)c1)C[C@]1(O)C(=O)C(C)=C[C@@H]41)O2 [RTX, resiniferatoxin]
- VSOM, Maximum ([1]; 25 μg (1 μg/mL), Day 0, n 6): 12.0
- VSOM, Minimum ([1]; 25 μg (1 μg/mL), Day 28, n 5): 0.0
- VSOM treatment failure, number of cats [1, 4]: 5 n
- VSOM treatment success, number of cats [1, 4]: 17 n
- VSOM treatment success, percent of cats [1, 4]: (77.2%)
- CGRP and SP axons innervating the bladder body ([2]; 25 mcg and 250 mcg intravesical, vs control dog): drastic reduction
- density of CGRP and SP nerve fibers innervating the body, trigon, and fundus ([2]; 25 mcg and 250 mcg, vs control tissue): reduced
- effect of 250 mcg in reducing density of CGRP and SP compared with 25 mcg ([2]; 250 mcg vs 25 mcg): greater effect
- cystitis events survey, Maximum [3, 5]: 18.0
- cystitis events survey, Mean [3, 5]: 13.00
- cystitis events survey, Median [3, 5]: 12.00
- cystitis events survey, Minimum [3, 5]: 10.0
- cystitis events survey, Maximum [3, 6]: 14.0
- cystitis events survey, Mean [3, 6]: 8.33
- cystitis events survey, Median [3, 6]: 8.00
- cystitis events survey, Minimum [3, 6]: 3.0
- Cystitis Improvement ≥2 Point, cats n/N ([3]; 6.25 μg/25 mL (Cohort 2)): 4/6
- Cystitis Improvement ≥3 Point, cats n/N ([3]; 6.25 μg/25 mL (Cohort 2)): 2/6
- cystitis events survey, Maximum [3, 7]: 13.0
- cystitis events survey, Mean [3, 7]: 11.33
- cystitis events survey, Median [3, 7]: 11.00
- cystitis events survey, Minimum [3, 7]: 10.0
- cystitis events survey, Maximum [3, 8]: 7.0
- cystitis events survey, Mean [3, 8]: 5.20
- cystitis events survey, Median [3, 8]: 5.00
- cystitis events survey, Minimum [3, 8]: 3.0
- cystitis events survey, Maximum [3, 9]: 16.0
- cystitis events survey, Mean [3, 9]: 12.5
- cystitis events survey, Median [3, 9]: 12.50
- cystitis events survey, Minimum [3, 9]: 9.0
- cystitis events survey, Maximum [3, 10]: 8.0
- cystitis events survey, Mean [3, 10]: 5.33
- cystitis events survey, Median [3, 10]: 6.00
- cystitis events survey, Minimum [3, 10]: 3.0
- Cystitis Improvement ≥2 Point, cats n/N ([3]; 12.5 μg/10 mL (Cohort 4)): 6/6
- Cystitis Improvement ≥2 Point, percent of cats ([3]; 12.5 μg/10 mL (Cohort 4)): (100%)
- Cystitis Improvement ≥3 Point, cats n/N ([3]; 12.5 μg/10 mL (Cohort 4)): 6/6
- Cystitis Improvement ≥3 Point, percent of cats ([3]; 12.5 μg/10 mL (Cohort 4)): (100%)
- Cystitis Improvement ≥2 Point, cats n/N ([3]; 12.5 μg/25 mL (Cohort 3)): 5/5
- Cystitis Improvement ≥2 Point, percent of cats ([3]; 12.5 μg/25 mL (Cohort 3)): (100%)
- Cystitis Improvement ≥3 Point, cats n/N ([3]; 12.5 μg/25 mL (Cohort 3)): 5/5
- Cystitis Improvement ≥3 Point, percent of cats ([3]; 12.5 μg/25 mL (Cohort 3)): (100%)
- cystitis events survey, Maximum ([3]; 25 μg (1 μg/mL), Day 0, n 6): 22.0
- cystitis events survey, Mean ([3]; 25 μg (1 μg/mL), Day 0, n 6): 16.67
- cystitis events survey, Median ([3]; 25 μg (1 μg/mL), Day 0, n 6): 16.50
- cystitis events survey, Minimum ([3]; 25 μg (1 μg/mL), Day 0, n 6): 11.0
- cystitis events survey, Maximum ([3]; 25 μg (1 μg/mL), Day 28, n 5): 7.0
- cystitis events survey, Mean ([3]; 25 μg (1 μg/mL), Day 28, n 5): 4.40
- cystitis events survey, Median ([3]; 25 μg (1 μg/mL), Day 28, n 5): 4.00
- cystitis events survey, Minimum ([3]; 25 μg (1 μg/mL), Day 28, n 5): 2.0
- Cystitis Improvement ≥2 Point, cats n/N ([3]; 25 μg/25 mL (Cohort 1)): 4/5
- Cystitis Improvement ≥2 Point, percent of cats ([3]; 25 μg/25 mL (Cohort 1)): (80%)
- Cystitis Improvement ≥3 Point, cats n/N ([3]; 25 μg/25 mL (Cohort 1)): 4/5
- Cystitis Improvement ≥3 Point, percent of cats ([3]; 25 μg/25 mL (Cohort 1)): (80%)
